The results in this text go back to patent US4045564A, “Benzimidazole derivatives useful as gastric acid secretion inhibitors” (AB Hassle, priority 1974, dated 1977).

The subject of assay [1] is pentagastrin induced gastric acid secretion. The assay can be described thus: Inhibition of pentagastrin induced gastric acid secretion in acute dog experiments with a modified perfusion technique (anaesthetized dog). The assay is classed as in vivo. Conditions: 10 mg/kg body weight, given into the duodenum in 0.5% Methocel suspension, pentagastrin 1-2 μg/kg. On the procedure: The testing was performed in acute dog experiments with a modified perfusion technique.
The stomach of the anaesthetized dog was provided with one tube through the oesophagus for instillation of fluid and another tube via the ligated pylorus through duodenum for drainage of fluid. Saline was instilled in a volume of 5 ml/kg body weight, and the instillation fluid was changed every 15 minutes.
The samples collected were titrated to pH 7.0 with 0.04 N NaOH using a Radiometer automatic titrator, and the acid output per 15 minutes was calculated (collection periods).
Gastric acid secretion was induced by pentagastrin in 1-2 μg/kg.
The amount of active agent administered was 10 mg/kg body weight.

Assay [2] concerns gastric acid secretion induced with pentagastrin. The assay can be described thus: Duration of the effect in conscious dog provided with a ventricel fistula, gastric acid secretion induced with pentagastrin. Type of assay: in vivo. On the procedure:
The compounds of Examples 1, 3, and 9 have also been tested with regard to the duration of the effect obtained in conscious dog provided with a ventricel fistula, the gastric acid secretion being induced with pentagastrin. The amount of gastric acid secreted before the administration of active agent was determined using a titrator, whereupon the gastric acid secretion was determined using a titrator after administration. In the table below the inhibition in % of basic secretion has been given for two different dose levels.

Take `Cc1cccc2[nH]c(SCc3ccccn3)nc12` [Example 1, [2-pyridylmethylthio]-4-methyl-2-benzimidazole]: the “% inhibition of the pentagastrin induced gastric acid secretion” value in assay [1] is on record as 89%. The “% inhibition of gastric acid secretion” value worked out at 20% in assay [2] (1 mg/kg, 1 hr); 25% in assay [2] (1 mg/kg, 2 hrs); 25% in assay [2] (1 mg/kg, 3 hrs); 50% in assay [2] (2 mg/kg, 1 hr); 60% in assay [2] (2 mg/kg, 2 hrs); 65% in assay [2] (2 mg/kg, 3 hrs).

As to `CCc1ccc2nc(SCc3ccccn3)[nH]c2c1` [Example 3, 2-[2-pyridylmethylthio]-(5-ethyl)-benzimidazole], the “% inhibition of the pentagastrin induced gastric acid secretion” value in assay [1] was found to be 86%. For the same compound, the “% inhibition of gastric acid secretion” value in assay [2] (1 mg/kg, 1 hr) is recorded as 20%; in assay [2] (1 mg/kg, 2 hrs), 25%; in assay [2] (1 mg/kg, 3 hrs), 25%; in assay [2] (2 mg/kg, 1 hr), 50%; in assay [2] (2 mg/kg, 2 hrs), 60%; in assay [2] (2 mg/kg, 3 hrs) it was 65%.

As for `COc1ccc2[nH]c(SCc3ccccn3)nc2c1` [Example 5], the “% inhibition of the pentagastrin induced gastric acid secretion” value in assay [1] was 40%.

`CCOC(=O)c1ccc2[nH]c(SCc3ccccn3)nc2c1` [Example 9]: the “% inhibition of the pentagastrin induced gastric acid secretion” value in assay [1] is listed as 70%. Also, the “% inhibition of gastric acid secretion” value in assay [2] (1 mg/kg, 1 hr) was 20%; in assay [2] (1 mg/kg, 2 hrs), 25%; in assay [2] (1 mg/kg, 3 hrs), 25%; in assay [2] (2 mg/kg, 1 hr), 50%; in assay [2] (2 mg/kg, 2 hrs) it was 60%; in assay [2] (2 mg/kg, 3 hrs), 65%.

For the compound `CC(=O)n1c(SCc2ccccn2)nc2ccccc21` [Example 16, 2-[2-pyridylmethylthio]-N-acetylbenzimidazole], in assay [1], the “% inhibition of the pentagastrin induced gastric acid secretion” value came to 80%.

`COC(=O)n1c(SCc2ccccn2)nc2ccccc21` [Example 17, 2-[2-pyridylmethylthio]-N-methoxycarbonylbenzimidazole]: the “% inhibition of the pentagastrin induced gastric acid secretion” value in assay [1] is 76%.
